Measurements reported in patent US5252463A, “Clipsin, a chymotrypsin-like protease and method of using same” (The Du Pont Merck Pharmaceutical Company, priority 1990, dated 1993).
Read-outs that look alike come from different tables or passages of the source. Starred links: 1 amine or outer side, 2 acyl side, 3 side chain; linkers in the order of their positions; H or OH if unused. Residues, ends and D or L forms follow the SMILES beside them. *: point of attachment. pNA = O=[N+]([O-])c1ccc(N*)cc1; Suc = O=C(CCC(=O)[*:2])[*:1]; MeOSuc = COC(=O)CCC(=O)*

Legend:
clipsin [1] = target: T1, clipsin (Rattus norvegicus, UniProt P09650); assay: Enzymography: clipsin activity in 125I-gelatin-containing polyacrylamide gels; assay type: biochemical; design: Mr 25,000 band in gelatin enzymography; settings: for Inhibition of clipsin by peptide boronic acids (in words): 10 μM final concentrations
T1 sequence (P09650 21-260): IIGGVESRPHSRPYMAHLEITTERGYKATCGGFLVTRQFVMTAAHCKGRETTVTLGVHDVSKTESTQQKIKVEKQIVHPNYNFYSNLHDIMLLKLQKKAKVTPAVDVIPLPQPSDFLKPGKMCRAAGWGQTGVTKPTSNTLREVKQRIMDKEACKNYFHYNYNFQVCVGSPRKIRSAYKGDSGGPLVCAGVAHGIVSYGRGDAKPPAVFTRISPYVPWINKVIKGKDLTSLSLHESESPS

[2] = target: T2, human leukocyte cathepsin G (Homo sapiens, UniProt P08311); assay: Hydrolysis kinetics of tetrapeptide p-nitroanilide substrates by cathepsin G; assay type: biochemical; settings: pH 7.5, 50° C.; for Km: 10% dimethyl sulfoxide; for kcat: α-1-AChy-titrated enzyme concentration
T2 sequence (P08311 21-244): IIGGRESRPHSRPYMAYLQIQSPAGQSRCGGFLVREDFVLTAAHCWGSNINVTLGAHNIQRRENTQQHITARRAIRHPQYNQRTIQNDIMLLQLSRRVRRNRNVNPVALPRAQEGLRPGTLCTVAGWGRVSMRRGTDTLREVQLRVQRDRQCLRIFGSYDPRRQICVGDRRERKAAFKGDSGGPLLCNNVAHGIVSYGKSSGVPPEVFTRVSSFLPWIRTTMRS
From the text: (§1) Correlation coefficients were greater than 0.99.

bovine chymotrypsin [3] = target: T3, bovine chymotrypsin (Bos taurus, UniProt P00766); assay: Hydrolysis kinetics of tetrapeptide p-nitroanilide substrates by chymotrypsin; assay type: biochemical; settings: ratio chymotrypsin/clipsin for the same substrate
T3 construct: mature chains cut from chymotrypsinogen A
From the text: as §1

[4] = test system: major Coomassie Blue-detectable proteins from rat cortical membranes; assay: Breakdown of rat cortical membrane proteins by Mg2+ extract, Coomassie Blue-stained gels; assay type: biochemical; settings: inhibitor included in the incubation
Description: (§2) Mg^2+ extract at 60% (about 4.2 nM clipsin final) was incubated with a crude membrane fraction from adult rat cortex (2.8 mg/mL protein final; Siman et al., (1989) J. Neurosci. 9, 1579-1590). Proteolysis reactions were performed at 37° C. for 1 h before quenching the reactions with sodium dodecyl sulfate-containing electrophoresis sample buffer and heating the samples to 90° C. for 5 min. Overall breakdown of proteins were determined by Coomassie Blue staining of gels, whereas β-APP degradation was assessed by Western blotting of identical gels. β-APP was visualized as 110-130-kDa bands using antiserum 385 as described previously (Siman et al., (1989) Neuron 3, 275-285). β-APP-immunostained polypeptides on Western blots and the corresponding major Coomassie Blue-stained protein bands on sodium dodecyl sulfate-containing polyacrylamide gels were quantified by scanning laser densitometry.
We began looking for potential endogenous substrates of clipsin by incubating rat cortical membranes with Mg^2+ extract and measuring loss of the major protein bands following separation of the incubated samples by polyacrylamide gel electrophoresis. […] No other bands varied more than 25%, and no protease activity endogenous to cortical membranes could be detected when comparing 37° C. incubated membranes with parallel samples kept on ice.

β-APP = β-APP degradation in rat cortical membranes by Mg2+ extract, Western blot with antiserum 385; assay type: biochemical; settings: inhibitor included in the incubation
Description: as §2

clipsin [5] = target: T1, clipsin; assay: In vitro chromogenic substrate assay: inhibition of Suc-Ala-Ala-Pro-Phe-p-nitroanilide hydrolysis by Mg2+ extract; assay type: biochemical; design: Forebrains from 5-day-old rats were stripped of meninges and homogenized; from tissue; host or cells: forebrain of 5-day-old rats, membrane-associated, 1M MgCl2 extract (partially enriched); settings: for remaining activity at 10 µM: read-out: Relative Clipsin Activity (ΔOD as a percentage of the control value)
[6] = test system: T4, COC(=O)CCC(=O)N[C@@H](C)C(=O)N[C@@H](C)C(=O)N1CCC[C@H]1C(=O)N[C@@H](CCSC)C(=O)Nc1ccc([N+](=O)[O-])cc1; assay: Hydrolysis kinetics of tetrapeptide p-nitroanilide substrates by chymotrypsin; assay type: biochemical, bovine; settings: other: chymotrypsin, pH 7.5, 50° C., 10% dimethyl sulfoxide
T4 construct: mature chains cut from chymotrypsinogen A
From the text: as §1

[7] = test system: T5, C[C@H](NC(=O)CCC(=O)O)C(=O)N[C@@H](C)C(=O)N1CCC[C@H]1C(=O)N[C@@H](Cc1ccccc1)C(=O)Nc1ccc([N+](=O)[O-])cc1; assay: as above; assay type: biochemical, bovine; settings: other: chymotrypsin, pH 7.5, 50° C., 10% dimethyl sulfoxide
T5 construct: mature chains cut from chymotrypsinogen A
From the text: as §1

bovine chymotrypsin [8] = target: T3, bovine chymotrypsin; settings: cited from earlier work
human cathepsin G = settings: cited from earlier work
clipsin [9] = target: T1, clipsin; assay: Association rate constant for α-1-AChy binding to clipsin, second-order conditions; design: Mr 25,000 band in gelatin enzymography; settings: equimolar clipsin and α-1-AChy
Description: The association rate constant for α-1-AChy binding to clipsin was determined under second-order conditions as described previously for α-1-AChy binding to other chymotrypsin-like proteases (Beatty et al., (1980) J. Biol. Chem. 255, 3931-3934). Using the titrated concentration of clipsin, an equimolar concentration of α-1-AChy was preincubated with Mg^2+ extract for various periods of time before addition of 2 mM substrate which stopped the reaction and was used to measure residual enzyme activity. The half-life time of reaction (t1/2) was calculated from a plot of .nu.^-1 versus t, and in turn used to calculate the association rate constant ^k assoc through the following: kassoc =1/t1/2 [Eγ], where [Eγ] stands for the total enzyme concentration (Beatty et al., (1980) J. Biol. Chem. 255, 3931-3934).
Using the titrated value for clipsin concentration in the Mg^2+ extract, we combined equimolar concentrations of clipsin and α-1-AChy to determine the association rate constant between these two proteins, as described previously (Equation 4 in Beatty et al., (1980) J. Biol. Chem. 255, 3931-3934). The ^k assoc was determined to be 2.9×10^6 M^-1 s^-1, a value falling between those determined previously for chymotrypsin and cathepsin G (Beatty et al., (1980) J. Biol. Chem. 255, 3931-3934).

clipsin [10] = target: T1, clipsin; assay: Titration of clipsin activity in Mg2+ extract with α-1-AChy in vitro; assay type: biochemical; design: Mr 25,000 band in gelatin enzymography; settings: 20% Mg2+ extract
[11] = inhibitor 10 μM, 20% Mg2+ extract (1.4 nM clipsin), 2 mM Suc-Ala-Ala-Pro-Phe-p-nitroanilide, 1 h, 37° C., average of three

c1cnc2c(c1)ccc1cccnc12 [1,10-0-phenanthroline]
Inhibition of clipsin activity by class-specific protease inhibitors (in words) (clipsin [1]; enzymography, 1 mM EDTA present): Lack of complete inhibition

CCN1C(=O)C=CC1=O [N-ethylmaleimide]
Inhibition of clipsin activity by class-specific protease inhibitors (in words) (clipsin [1]): not inhibited

COC(=O)CCC(=O)N[C@@H](C)C(=O)N[C@@H](C)C(=O)N1CCC[C@H]1C(=O)N[C@@H](CCSC)C(=O)Nc1ccc([N+](=O)[O-])cc1 [R'--Met-p-nitroanilide] (MeOSuc-AAPM-pNA)
kcat /Km [2]: 4,300 M^-1 S^-1
Km [2]: 540 µM
kcat [2]: 2.3 s⁻¹
kcat /Km of chymotrypsin relative to clipsin (bovine chymotrypsin [3]): 8.5 fold

C[C@H](NC(=O)CCC(=O)O)C(=O)N[C@@H](C)C(=O)N1CCC[C@H]1C(=O)N[C@@H](Cc1ccccc1)C(=O)Nc1ccc([N+](=O)[O-])cc1 [R--Phe-p-nitroanilide, Suc-Ala-Ala-Pro-Phe-p-nitroanilide] (Suc-AAPF-pNA)
kcat /Km [2]: 4,800 M^-1 S^-1
Km [2]: 3300 µM
kcat [2]: 16 s⁻¹
kcat /Km of chymotrypsin relative to clipsin (bovine chymotrypsin [3]): 16 fold

COC(=O)CCC(=O)N[C@@H](C)C(=O)N[C@@H](C)C(=O)N1CCC[C@H]1C(=O)N[C@@H](Cc1ccccc1)B(O)O [Sample 2, MeO-Suc-Ala-Ala-Pro-boro-Phe-OH]
Blocking of the clipsin-induced decrease of the protein doublet (in words) [4]: could be blocked
Blocking of the clipsin-induced loss of β-APP immunoreactivity (in words) (β-APP): specifically blocked
Inhibition of clipsin by peptide boronic acids (in words) (clipsin [1]; enzymography): preferentially inhibited
remaining activity at 10 µM (clipsin [5]; [11]): 8%

COC(=O)CCC(=O)N[C@@H](C)C(=O)N[C@@H](C)C(=O)N1CCC[C@H]1C(=O)N[C@@H](C)B(O)O [Sample 3, MeO-Suc-Ala-Ala-Pro-boro-Ala-OH]
Inhibition of clipsin by peptide boronic acids (in words) (clipsin [1]; enzymography): lack of inhibition
remaining activity at 10 µM (clipsin [5]; [11]): 97%

COC(=O)CCC(=O)N[C@@H](C)C(=O)N[C@@H](C)C(=O)N1CCC[C@H]1C(=O)N[C@H](B(O)O)C(C)C [Sample 4, MeO-Suc-Ala-Ala-Pro-boro-Val-OH]
Inhibition of clipsin by peptide boronic acids (in words) (clipsin [1]; enzymography): lack of inhibition
remaining activity at 10 µM (clipsin [5]; [11]): 94%

O=C(O)CI [iodoacetic acid]
Inhibition of clipsin activity by class-specific protease inhibitors (in words) (clipsin [1]): not inhibited

O=S(=O)(F)Cc1ccccc1 [phenylmethylsulfonyl fluoride]
Inhibition of clipsin activity by class-specific protease inhibitors (in words) (clipsin [1]): inhibited clipsin activity

Bz-Pro-Phe-boro-Arg-OH [Sample 5]
Inhibition of clipsin by peptide boronic acids (in words) (clipsin [1]; enzymography): only marginally
Relative Clipsin Activity (ΔOD as a percentage of the control value) (clipsin [5]; [11]): 84%

bovine chymotrypsin (Bos taurus)
Km [6]: 1800 µM
kcat [6]: 80 s⁻¹
kcat/Km [6]: 44,000 M^-1 S^-1
Km [7]: 130 µM
kcat [7]: 120 s⁻¹
kcat/Km [7]: 910,000 M^-1 S^-1

B1: α-1-antichymotrypsin (protein, UniProt P01011 24-423, looked up)
Alpha-1-antichymotrypsin: HPNSPLDEENLTQENQDRGTHVDLGLASANVDFAFSLYKQLVLKAPDKNVIFSPLSISTALAFLSLGAHNTTLTEILKGLKFNLTETSEAEIHQSFQHLLRTLNQSSDELQLSMGNAMFVKEQLSLLDRFTEDAKRLYGSEAFATDFQDSAAAKKLINDYVKNGTRGKITDLIKDLDSQTMMVLVNYIFFKAKWEMPFDPQDTHQSRFYLSKKKWVMVPMMSLHHLTIPYFRDEELSCTVVELKYTGNASALFILPDQDKMEEVEAMLLPETLKRWRDSLEFREIGELYLPKFSISRDYNLNDILLQLGIEEAFTSKADLSGITGARNLAVSQVVHKAVLDVFEEGTEASAATAVKITLLSALVETRTIVRFNRPFLMIIVPTDTQNIFFMSKVTNPKQA
kassoc reported for α-1-AChy binding to bovine chymotrypsin (bovine chymotrypsin [8]): 60000 M⁻¹ s⁻¹
kassoc reported for α-1-AChy binding to human cathepsin G (human cathepsin G): 5.1e+07 M⁻¹ s⁻¹
kassoc, association rate constant of α-1-AChy with clipsin (clipsin [9]): 2.9e+06 M⁻¹ s⁻¹
α-1-AChy concentration producing rapid inhibition of clipsin activity (clipsin [10]): ≥ 3.5 nM
α-1-AChy necessary to inhibit 100% clipsin activity (titration point) (clipsin [10]; titration curve at 120 min preincubation): 1.4 nM
Inhibition of clipsin activity in vitro (in words) (clipsin [5]; pilot experiments, […]): effective inhibitor
